Measured values: ChEMBL document CHEMBL1137252, “Substituted 5-benzyl-2-phenyl-5H-imidazo[4,5-c]pyridines: a new class of pestivirus inhibitors” (Bioorg Med Chem Lett, 2006)
Active and inactive are the calls of the source. The rule behind the calls is not given here.

Columns and labels:
[1] = Selectivity index, CC50 for MDBK cells/EC50 for BVDV NADL; assay type: functional
[2] = system: Bovine viral diarrhea virus 1; assay: Antiviral activity against BVDV NADL in MDBK cells; assay type: functional, organism-based; settings: Bovine viral diarrhea virus isolates and strains
Hepatitis C virus = assay: Antiviral activity against HCV 1a; assay type: functional, organism-based; settings: Hepacivirus hominis; subtype 1a
[3] = Cytotoxicity against MDBK cells; assay type: cell-based, Bos taurus; settings: cattle

Compound	Ratio CC50/EC50 [1]	EC50 [2]	Activity (Hepatitis C virus)	CC50 [3]
C(=C\c1ccccc1)/Cn1ccc2nc(-c3ccccc3)nc-2c1	459	0.17 µM	inactive	78 µM
c1ccc(-c2nc3ccn(CC4CCCCC4)cc-3n2)cc1	>118	0.85 µM	inactive	> 100 µM
CC(C)(C)c1ccc(Cn2ccc3nc(-c4ccccc4)nc-3c2)cc1	45	0.49 µM	inactive	22 µM
Brc1cccc(Cn2ccc3nc(-c4ccccc4)nc-3c2)c1	304	0.28 µM	inactive	85 µM
COc1ccccc1Cn1ccc2nc(-c3ccccc3)nc-2c1	>370	0.27 µM	inactive	> 100 µM
Cc1cccc(Cn2ccc3nc(-c4ccccc4)nc-3c2)c1	>167	0.6 µM	inactive	> 100 µM
Clc1cccc(Cn2ccc3nc(-c4ccccc4)nc-3c2)c1	>476	0.21 µM	inactive	> 100 µM
Fc1cccc(F)c1-c1nc2ccn(CCc3ccccc3)cc-2n1	>2	57 µM	inactive	> 100 µM
Cc1ccccc1Cn1ccc2nc(-c3ccccc3)nc-2c1	>333	0.3 µM	inactive	> 100 µM
FC(F)(F)Oc1ccc(Cn2ccc3nc(-c4ccccc4)nc-3c2)cc1	244	0.27 µM	inactive	66 µM
c1ccc(-c2nc3ccn(Cc4cccnc4)cc-3n2)cc1	>59	1.7 µM	inactive	> 100 µM
c1ccc(CCCCn2ccc3nc(-c4ccccc4)nc-3c2)cc1	45	2.1 µM	inactive	95 µM
c1ccc(OCCn2ccc3nc(-c4ccccc4)nc-3c2)cc1	>370	0.27 µM	inactive	> 100 µM
Brc1ccc(Cn2ccc3nc(-c4ccccc4)nc-3c2)cc1	1186	0.07 µM	inactive	
FC(F)(F)c1cccc(Cn2ccc3nc(-c4ccccc4)nc-3c2)c1	408	0.24 µM	inactive	98 µM
CC(C)=CCn1ccc2nc(-c3ccccc3)nc-2c1	>33	3 µM	inactive	> 100 µM
c1ccc(-c2nc3ccn(Cc4ccccn4)cc-3n2)cc1	>63	1.6 µM	inactive	> 100 µM
Fc1cccc(F)c1Cn1c(-c2c(F)cccc2F)nc2cnccc21	>6	16.2 µM	inactive	> 100 µM
N#Cc1cccc(Cn2ccc3nc(-c4ccccc4)nc-3c2)c1	>25	4 µM	inactive	> 100 µM
COc1cccc(Cn2ccc3nc(-c4ccccc4)nc-3c2)c1	>200	0.5 µM	inactive	> 100 µM
Clc1ccccc1Cn1ccc2nc(-c3ccccc3)nc-2c1	>526	0.19 µM	inactive	> 100 µM
Fc1ccccc1Cn1ccc2nc(-c3ccccc3)nc-2c1	>1000	0.1 µM	inactive	> 100 µM
CCn1ccc2nc(-c3ccccc3)nc-2c1	>7	15 µM	inactive	> 100 µM
Fc1cccc(F)c1-c1nc2ccn(Cc3ccccc3)cc-2n1	>25	4 µM	inactive	> 100 µM
Fc1cccc(Cn2ccc3nc(-c4ccccc4)nc-3c2)c1	>667	0.15 µM	inactive	> 100 µM
Clc1ccc(Cn2ccc3nc(-c4ccccc4)nc-3c2)cc1	>1250	0.08 µM	inactive	> 100 µM
c1ccc(CCCn2ccc3nc(-c4ccccc4)nc-3c2)cc1	>143	0.7 µM	inactive	> 100 µM

Compound	Ratio CC50/EC50 [1]	EC50 [2]	Activity (Hepatitis C virus)	CC50 [3]
Fc1cccc(F)c1Cn1ccc2nc(-c3c(F)cccc3F)nc-2c1	>65	1.5 µM	inactive	> 100 µM
CC(C)CCn1ccc2nc(-c3ccccc3)nc-2c1	>26	3.8 µM	inactive	> 100 µM
FC(F)(F)c1ccccc1Cn1ccc2nc(-c3ccccc3)nc-2c1	>67	1.5 µM	inactive	> 100 µM
c1ccc(-c2nc3ccn(Cc4cccc5ccccc45)cc-3n2)cc1	1017	0.06 µM	inactive	61 µM
Fc1cccc(F)c1Cn1cccc2nc(-c3c(F)cccc3F)nc1-2	<=3	≥ 32 µM	inactive	> 100 µM
Clc1ccc(Cn2ccc3nc(-c4ccccc4)nc-3c2)s1	>476	0.21 µM	inactive	> 100 µM
Fc1cccc(F)c1Cn1ccc2nc(-c3ccccc3)nc-2c1	>435	0.23 µM	inactive	> 100 µM
Cc1ccc(Cn2ccc3nc(-c4ccccc4)nc-3c2)cc1	>769	0.13 µM	inactive	> 100 µM
c1ccc(-c2nc3cc[nH]cc-3n2)cc1	>10	10 µM	inactive	> 100 µM
CC(c1ccccc1)n1ccc2nc(-c3ccccc3)nc-2c1 (centres undefined)	>48	2.1 µM	inactive	> 100 µM
Clc1ccc(Cn2ccc3nc(-c4ccccc4)nc-3c2)cc1Cl	645	0.11 µM	inactive	71 µM
c1ccc(-c2ccc(Cn3ccc4nc(-c5ccccc5)nc-4c3)cc2)cc1	225	0.08 µM	inactive	18 µM
COc1ccc(Cn2ccc3nc(-c4ccccc4)nc-3c2)cc1	>714	0.14 µM	inactive	> 100 µM
CC(C)N(CCn1ccc2nc(-c3ccccc3)nc-2c1)C(C)C	>45	2.2 µM	inactive	> 100 µM
c1ccc(Cn2ccc3nc(-c4ccccc4)nc-3c2)cc1	>400	0.25 µM	inactive	> 100 µM
O=C(O)c1ccc(Cn2ccc3nc(-c4ccccc4)nc-3c2)cc1		> 100 µM	inactive	> 100 µM
Brc1ccccc1Cn1ccc2nc(-c3ccccc3)nc-2c1	>357	0.28 µM	inactive	> 100 µM
c1ccc(-c2nc3ccn(Cc4ccc5ccccc5c4)cc-3n2)cc1	13	5 µM	inactive	67 µM
CCC(CC)Cn1ccc2nc(-c3ccccc3)nc-2c1	>52	1.9 µM	inactive	> 100 µM
Cc1ccn(Cc2c(F)cccc2F)c2nc(-c3c(F)cccc3F)nc1-2	<=1.1	≥ 88 µM	inactive	> 100 µM
FC(F)(F)c1ccc(Cn2ccc3nc(-c4ccccc4)nc-3c2)cc1	455	0.22 µM	inactive	84 µM
Ic1ccc(Cn2ccc3nc(-c4ccccc4)nc-3c2)cc1	183	0.12 µM	inactive	22 µM
N#Cc1ccc(Cn2ccc3nc(-c4ccccc4)nc-3c2)cc1	>435	0.23 µM	inactive	> 100 µM
N#Cc1ccccc1Cn1ccc2nc(-c3ccccc3)nc-2c1	>132	0.76 µM	inactive	> 100 µM
Fc1cccc(F)c1Cn1c(-c2c(F)cccc2F)nc2ccncc21	<=2	≥ 48 µM	inactive	99 µM
c1ccc(-c2nc3ccn(Cc4ccncc4)cc-3n2)cc1	>50	2 µM	inactive	> 100 µM
Fc1ccc(Cn2ccc3nc(-c4ccccc4)nc-3c2)cc1	>833	0.12 µM	inactive	> 100 µM
